Data set [1] in a line: β-carotene bleaching assay. As to conditions: after 30 min. From the text: (§1) The DPPH assay was peformed using the method of Yardpiroon et al., Vitamin C was used as a positive control. The ABTS assay followed the method of Re et al., [40], Vitamin C was used as a standard. The β-carotene bleaching assay used the method described by Soulef et al., [14] in the presence of the positive control BHT. The value for each test sample was presented as the inhibition curve at 50% or IC50.

The next data set is described as follows: DPPH assay.
Excerpt: as §1

The next data set is described as follows: ABTS assay.
Excerpt: as §1

The next data set deals with T1, human leukocyte elastase (Homo sapiens, UniProt P08246).
T1 sequence (P08246 30-267): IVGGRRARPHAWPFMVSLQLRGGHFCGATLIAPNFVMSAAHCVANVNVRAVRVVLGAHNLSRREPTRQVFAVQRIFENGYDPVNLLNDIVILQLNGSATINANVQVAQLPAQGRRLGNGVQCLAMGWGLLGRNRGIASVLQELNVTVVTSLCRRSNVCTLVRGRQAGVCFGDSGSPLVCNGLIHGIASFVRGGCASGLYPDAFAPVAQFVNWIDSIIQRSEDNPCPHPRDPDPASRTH
Briefly: Anti-elastase assay. Type of data set: biochemical. On the procedure:
The anti-aging and skin whitening activities were assessed following the methods reported by Mostafa et al.. For the anti-elastase assay, 1 μg/mL of human leukocyte elastase was incubated with HEPES buffer pH 7.5 and each of the tested extracts or 1.4 mg/mL N-Methoxysuccinyl-Ala-Ala-Pro-chloromethyl ketone (standard inhibitor) in a 96-well plate for 20 min at room temperature before the addition of 100 μL of 1 mM N-Methoxysuccinyl-Ala-Ala-Pro-Val-p-nitroanilide as a substrate. After 40 min incubation the absorbance was measured at 405 nm with a well devoid of extract/inhibitor serving as a blank. The tested samples were used in a concentration range of 25–300 µg/mL.

A further data set concerns the target mushroom tyrosinase (Agaricus bisporus, UniProt C7FF04). Briefly: Anti-tyrosinase assay. As to conditions: 300 μg/mL tested samples; positive control kojic acid (methods: 1.4 mg/mL). Type of data set: biochemical.
Data set [2] has as its target collagenase type 1 from Clostridium histolyticum (Hathewaya histolytica (Clostridium histolyticum), UniProt Q46085). Nature of the data set: biochemical. Conditions: read-out: Anti-Collagenase % Inhibition.
Data set [3] concerns human keratinocytes cell line. Nature of the data set: MTT cytotoxicity in human keratinocytes. Type of data set: cell-based. Conditions: 0.0625–0.5 mg/mL, 24 h. On the procedure: (§2) The human keratinocytes cell line was obtained from VACSERA CO. (The Egyptian Company for the Production of Vaccines, Sera, and Drugs, Giza, Egypt). The MTT assay was done for PPEE and PPEE-SLNs according to the method of Mostafa et al..
(§3) The MTT assay was used to test whether PPEE, PPEE-SLNs, and KDPAG could affect cell viability using human keratinocytes. Different concentrations of PPEE, PPEE-SLNs, extract-free-SLNs and KDPAG at 0.0625– 1mg/mL were incubated over 24 h with a human keratinocytes cell line (Figure 2). […] However, after treatment with 1 mg/mL of PPEE, PPEE-SLNS, Extract-free-SLNs, and KDPAG over 24 h, a significant reduction in cell viability of human keratinocytes was observed, 93%, 90%, 95%, and 89% of the cells survived, respectively. Thus, concentrations of PPEE, PPEE-SLNs, and KDPAG equal to or lower than 0.5 mg/mL were used for subsequent studies.

A short description of data set [4]: MTT cytotoxicity in human keratinocytes. Type of data set: cell-based. As to conditions: human keratinocytes cell line, 1 mg/mL, read-out: cell viability (cells survived). On the procedure:
as §2, §3

A word on the inhibition: it is the percentage by which the read-out fell short of the control. For orientation: IC50 means the concentration at which inhibition is half-maximal. A higher IC50 goes with weaker potency in that assay. The viability is a per cent measure of how many cells are alive, often set against a control.

Chain of mushroom tyrosinase (G1K3P4 entry or part of it): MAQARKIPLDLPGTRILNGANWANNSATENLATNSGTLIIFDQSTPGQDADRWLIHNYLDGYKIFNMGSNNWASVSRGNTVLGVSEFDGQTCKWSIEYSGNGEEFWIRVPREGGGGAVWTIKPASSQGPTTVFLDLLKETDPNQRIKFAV
Chain of mushroom tyrosinase (C7FF04 1-392): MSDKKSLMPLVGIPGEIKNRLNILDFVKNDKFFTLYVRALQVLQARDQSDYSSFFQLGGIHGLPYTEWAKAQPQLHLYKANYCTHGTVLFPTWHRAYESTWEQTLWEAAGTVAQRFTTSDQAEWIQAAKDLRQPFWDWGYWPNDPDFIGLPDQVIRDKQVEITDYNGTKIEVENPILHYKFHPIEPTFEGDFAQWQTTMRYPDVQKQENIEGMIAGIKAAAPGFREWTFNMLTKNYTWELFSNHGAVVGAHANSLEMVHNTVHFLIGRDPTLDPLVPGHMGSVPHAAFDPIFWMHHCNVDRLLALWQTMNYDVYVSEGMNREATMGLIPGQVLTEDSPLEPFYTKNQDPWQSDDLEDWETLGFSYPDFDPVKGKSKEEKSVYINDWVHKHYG
Chain of collagenase type 1 from Clostridium histolyticum (Q46085 41-1021 limits assumed): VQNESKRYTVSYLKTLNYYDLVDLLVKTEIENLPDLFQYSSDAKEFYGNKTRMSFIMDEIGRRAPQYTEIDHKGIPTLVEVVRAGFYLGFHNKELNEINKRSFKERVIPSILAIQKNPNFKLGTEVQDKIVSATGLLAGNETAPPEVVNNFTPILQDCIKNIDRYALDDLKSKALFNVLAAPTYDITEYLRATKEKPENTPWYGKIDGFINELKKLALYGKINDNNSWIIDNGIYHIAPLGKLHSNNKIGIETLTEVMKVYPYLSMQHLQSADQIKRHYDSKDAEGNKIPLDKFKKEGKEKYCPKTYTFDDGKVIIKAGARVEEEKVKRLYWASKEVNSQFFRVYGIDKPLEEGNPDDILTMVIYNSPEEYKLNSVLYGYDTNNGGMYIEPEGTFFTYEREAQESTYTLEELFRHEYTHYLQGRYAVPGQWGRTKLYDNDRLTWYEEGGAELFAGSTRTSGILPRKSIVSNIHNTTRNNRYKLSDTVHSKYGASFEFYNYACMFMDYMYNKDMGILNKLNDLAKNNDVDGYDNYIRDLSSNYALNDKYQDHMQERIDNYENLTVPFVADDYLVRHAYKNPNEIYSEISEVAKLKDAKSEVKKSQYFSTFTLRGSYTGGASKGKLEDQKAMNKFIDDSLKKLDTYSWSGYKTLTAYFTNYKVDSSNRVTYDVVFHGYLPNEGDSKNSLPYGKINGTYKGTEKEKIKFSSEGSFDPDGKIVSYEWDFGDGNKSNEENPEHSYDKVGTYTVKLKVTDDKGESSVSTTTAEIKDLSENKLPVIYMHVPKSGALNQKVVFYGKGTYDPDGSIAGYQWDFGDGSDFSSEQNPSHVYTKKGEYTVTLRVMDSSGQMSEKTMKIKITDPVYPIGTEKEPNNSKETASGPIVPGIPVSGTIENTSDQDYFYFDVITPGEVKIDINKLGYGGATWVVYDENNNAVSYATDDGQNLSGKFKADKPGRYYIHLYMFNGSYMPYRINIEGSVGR
Protocol for mushroom tyrosinase: For the anti-tyrosinase assay, 5600 units/mL of mushroom tyrosinase was incubated with each of the tested extracts or 1.4 mg/mL kojic acid (standard inhibitor) for 15 min at 37 °C before adding 1 mM L-DOPA as a substrate. The absorbance of the formed dopachrome was measured at 475 nm. The tested samples were used in a concentration range of 75–500 µg/mL.

In the case of `Cc1cc(C(C)(C)C)c(O)c(C(C)(C)C)c1` [BHT, reference compound], in data set [1], the “β-carotene assay IC50” value is listed as 8.06 ± 0.67 µg/mL.

As for `O=C1O[C@H]([C@@H](O)CO)C(O)=C1O` [vitamin C, reference compound], in the data set “DPPH assay”, the “DPPH IC50” value is recorded as 2 ± 0.01 µg/mL. The “ABTS IC50” value in the data set “ABTS assay” turned out to be 0.96 ± 0.02 µg/mL.

As to `O=C(Cc1ccc(O)c(O)c1)OC[C@H]1O[C@@H](Oc2c(-c3ccc(O)cc3)oc3cc(O)cc(O)c3c2=O)[C@H](O)[C@@H](O)[C@@H]1O` [KDPAG, kaempferol 3-O-β-^4C1-(6″-O-3,4-dihydroxyphenylacetyl glucopyranoside)], in the data set “DPPH assay”, the “DPPH IC50” value was found to be 6.35 ± 3.40 µg/mL. The “β-carotene assay IC50” value in data set [1] came to 1.73 ± 0.05 µg/mL. In addition, the inhibition at 1400 µg/mL against human leukocyte elastase (300 μg/mL tested samples, positive control N-(Methoxysuccinyl)-Ala-Ala-Pro-Val-chloromethyl ketone (methods: 1.4 mg/mL)) turned out to be 89.2 ± 1.26%; in data set [2], 91.1 ± 2.45%. The compound further gave an IC50 against human leukocyte elastase (positive control N-(Methoxysuccinyl)-Ala-Ala-Pro-Val-chloromethyl ketone) of 83.2 µM. This compound also displayed an inhibition at 300 µg/mL on mushroom tyrosinase of 85.7 ± 2.1%. The “ABTS IC50” value in “ABTS assay” is listed as 3.91 ± 1.43 µg/mL. The “reduction in cell viability” value in data set [3] is “no observed significant reduction”. The viability at 24 h, 1 mg/mL in data set [4] is 89%.

The values are drawn from PMC7998748, “A Unique Acylated Flavonol Glycoside from Prunus persica (L.) var. Florida Prince: A New Solid Lipid Nanoparticle Cosmeceutical Formulation for Skincare” (Antioxidants, 2021).
